{
  "source": "paper PMC12064818",
  "about": "“A general assay platform to study protein pharmacology using ligand-dependent structural dynamics” (Nature Communications, 2025)",
  "biological_target": "FLuc-C-NLuc (firefly luciferase) (Photinus pyralis, UniProt P08659, form not given/L550V)",
  "sequence (P08659 2-550 L550V, form open)": "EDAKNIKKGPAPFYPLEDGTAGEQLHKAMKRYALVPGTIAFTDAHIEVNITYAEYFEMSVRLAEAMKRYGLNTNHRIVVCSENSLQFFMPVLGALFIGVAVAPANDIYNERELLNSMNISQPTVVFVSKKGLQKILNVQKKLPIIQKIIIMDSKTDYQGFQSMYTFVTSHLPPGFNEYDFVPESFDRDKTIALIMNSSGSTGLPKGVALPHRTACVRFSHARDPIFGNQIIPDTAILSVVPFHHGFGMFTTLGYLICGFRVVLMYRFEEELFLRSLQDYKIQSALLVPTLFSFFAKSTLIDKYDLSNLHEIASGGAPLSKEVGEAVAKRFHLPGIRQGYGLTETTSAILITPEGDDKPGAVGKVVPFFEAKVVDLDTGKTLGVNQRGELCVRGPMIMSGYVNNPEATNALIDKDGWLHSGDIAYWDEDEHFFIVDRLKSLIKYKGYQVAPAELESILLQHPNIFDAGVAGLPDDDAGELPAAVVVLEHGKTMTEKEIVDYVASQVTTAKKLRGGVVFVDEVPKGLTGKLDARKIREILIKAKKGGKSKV",
  "assay": "Firefly luciferase (FLuc) enzymatic luminescence assay, FLuc-C-NLuc",
  "format": "biochemical",
  "set-up": "key to Enz: % normalized; no enzyme control = 100% inhibition, DMSO = 0",
  "conditions": "for Enz: Log[Compound]",
  "experimental": "The enzyme activity of FLuc-N-HiBiT, FLuc-C-HiBiT, and FLuc-C-NLuc was measured similar to P. pyralis firefly luciferase (FLuc) as previously described. […] Compounds and controls were added to each plate as described in Supplementary Data 8 with a Hornet pintool system (Wako Automation). Compounds were incubated with respective enzymes for 30–60 min at room temperature protected from light and covered by solid metal lid to prevent evaporation. […] Luciferin was incubated with FLuc enzyme for 5 min before FLuc activity was then measured on a ViewLux CCD imager (PerkinElmer), with exposure times up to ten seconds with medium to high gain settings. Data were normalized to average no enzyme control as 100% enzyme inhibition and average DMSO neutral control. See Supplementary Table 4 for additional details.\nSupplementary Table 4. Protocol for Firefly luciferase (FLuc) and NanoLuc (NLuc) enzymatic\nSupplementary Table 4: Protocol for Firefly luciferase (FLuc) and NanoLuc (NLuc) enzym atic lum inescence assay\nFirefly luciferase (FLuc) enzym atic lum inescence assay\nSequence Param eter Value Description\nNo enzym e control (colum n 1) and enzym e solution (1- 10 nM FLuc enzym e) in FLuc assay\n1 Reagent 4 µLbuffer; white/solid bottom , m edium bind, high base plates (Greiner), dispensed with BioRaptr\ncom pounds transferred to respective colum ns with Pintool\n2b Test Com pounds 23 nLconcentration range) in colum ns 5- 48; com pounds transferred to respective wells with\n3 Incubation 30 m in Incubate enzym e + com pounds at am bient tem p for 30 m in, protected from light\n4 Reagent 3 µLAdd 3 µL of D-luciferin substrate solution to each well (final concentration 10 µM); dispensed\n5 Detector ViewLux Read plate lum inescence (Exposure = 1- 10 sec; Gain = Medium -high; Speed = Slow;\nDispensing solution was diluted in 1X PBS, pH 7.4. […]",
  "key": {"[1]": {"conditions": "FLuc-C-NLuc (1 nM) + 10 mM ATP, 32.8 µM ligand"}},
  "note": "“And” between values parts separate entries of the source, which are not always exact repeats. Equal entries are not always repeated.",
  "data": [
    {"compound": "O=C(O)c1cccc(-c2noc(-c3ccccc3F)n2)c1", "note": "[PTC124, reference compound]", "values": [
      {"measurement": "Functional Enzymatic Assay", "setting": "1 nM FLuc-C-NLuc, Log [PTC124], M -6.87, replicates", "value": "5.5 RLU and 5.8 RLU and 4.9 RLU and 5.4 RLU"},
      {"measurement": "pIC50, FLuc-C-NLuc (1 nM)", "setting": "10 μM ATP", "value": "9.85 ± 0.03"},
      {"measurement": "Standard assay statistics Ave RLU", "setting": "[1]", "value": 18.2, "unit": "RLU"},
      {"measurement": "Standard assay statistics S:B", "setting": "[1]", "value": 48.3},
      {"measurement": "Standard assay statistics S:N", "setting": "[1]", "value": 14.7},
      {"measurement": "Standard assay statistics Z’", "setting": "[1]", "value": 0.775},
      {"measurement": "1 nM FLuc-C-NLuc Enz, Mean", "setting": "Log [PTC124], M -4.48", "value": 0.85, "unit": "RLU"},
      {"measurement": "1 nM FLuc-C-NLuc Enz, Mean", "setting": "Log [PTC124], M -4.96", "value": 0.8, "unit": "RLU"},
      {"measurement": "1 nM FLuc-C-NLuc Enz, Mean", "setting": "Log [PTC124], M -5.44", "value": 1.3, "unit": "RLU"},
      {"measurement": "1 nM FLuc-C-NLuc Enz, Mean", "setting": "Log [PTC124], M -5.91", "value": 1.6, "unit": "RLU"},
      {"measurement": "1 nM FLuc-C-NLuc Enz, Mean", "setting": "Log [PTC124], M -6.39", "value": 2.8, "unit": "RLU"},
      {"measurement": "1 nM FLuc-C-NLuc Enz, Mean", "setting": "Log [PTC124], M -6.87", "value": 5.9, "unit": "RLU"},
      {"measurement": "1 nM FLuc-C-NLuc Enz, Mean", "setting": "Log [PTC124], M -7.35", "value": 11.8, "unit": "RLU"},
      {"measurement": "1 nM FLuc-C-NLuc Enz, Mean", "setting": "Log [PTC124], M -7.82", "value": 27.4, "unit": "RLU"},
      {"measurement": "1 nM FLuc-C-NLuc Enz, Mean", "setting": "Log [PTC124], M -8.30", "value": 69.9, "unit": "RLU"},
      {"measurement": "1 nM FLuc-C-NLuc Enz, Mean", "setting": "Log [PTC124], M -8.78", "value": 146.5, "unit": "RLU"},
      {"measurement": "1 nM FLuc-C-NLuc Enz, Mean", "setting": "Log [PTC124], M -9.25", "value": 188.2, "unit": "RLU"},
      {"measurement": "1 nM FLuc-C-NLuc Enz, Mean", "setting": "Log [PTC124], M -9.73", "value": 384.3, "unit": "RLU"},
      {"measurement": "1 nM FLuc-C-NLuc Enz, Mean", "setting": "Log [PTC124], M -10.21", "value": 641.6, "unit": "RLU"},
      {"measurement": "1 nM FLuc-C-NLuc Enz, Mean", "setting": "Log [PTC124], M -10.69", "value": 817.0, "unit": "RLU"},
      {"measurement": "1 nM FLuc-C-NLuc Enz, Mean", "setting": "Log [PTC124], M -11.16", "value": 872.5, "unit": "RLU"},
      {"measurement": "1 nM FLuc-C-NLuc Enz, Mean", "setting": "Log [PTC124], M -11.64", "value": 882.4, "unit": "RLU"}
    ]},
    {"compound": "CC(CNC(=O)C1CCN(C(=O)c2ncn3c2COC(c2ccccc2)C3)CC1)c1ccccc1", "note": "(stereo not drawn) [compound 00449795]", "values": [
      {"measurement": "Enz", "setting": "M -4.48", "value": -89.10},
      {"measurement": "Enz", "setting": "M -4.96", "value": -73.93},
      {"measurement": "Enz", "setting": "M -5.44", "value": -56.58},
      {"measurement": "Enz", "setting": "M -5.91", "value": -29.78},
      {"measurement": "Enz", "setting": "M -6.39", "value": -11.92},
      {"measurement": "Enz", "setting": "M -6.87", "value": -0.00581},
      {"measurement": "Enz", "setting": "M -7.35", "value": 4.23},
      {"measurement": "Enz", "setting": "M -7.82", "value": 7.74},
      {"measurement": "Enz", "setting": "M -8.30", "value": 6.20},
      {"measurement": "Enz", "setting": "M -8.78", "value": 3.71},
      {"measurement": "Enz", "setting": "M -9.25", "value": 4.09}
    ]}
  ]
}
